Data: patent publication US20150065416A1, “NOVEL DRUG COMBINATION” (FAB PHARMA SAS, priority 2013, published 2015)

Tests used:
A. baumannii SAN strain = test: Bactericidal activity (time kill kinetics, Example 5); assay type: cell-based, Acinetobacter baumannii; details: alone at 2×MIC
Procedure: In addition, a second set of experiments involved the testing of compound(I)/additional antibacterial agent combinations of 2×/2×MIC. Samples were taken at 0, 3, 6 and 24 hours in order to determine colony forming units (CFU/mL).

A. baumannii isolates [1] = test: Checkerboard testing (compound (I)/antibacterial agent interaction, FIC index); assay type: cell-based, Acinetobacter baumannii
Procedure: Checkerboard interaction studies were performed using 5 isolates from each of the sub-groups and time kill studies were performed using 3 isolates from each sub-group.
Checkerboards (20 isolates, 5 per sub-group) were prepared so as to contain multiple concentrations of compound (I) with different additional antibacterial agents (amikacin, gentamicin, colistin, meropenem and tobramycin) as follows:
Serial two-fold dilutions of the antimicrobial agents alone or in combination in wells of 96 well microtiter plates were inoculated with the appropriate inoculum so that each well contained approximately 4-5×10^4 CFU/ml. Plates were incubated at 35° C. for 16-20 hours. Combination concentrations were tested between 0.25×MIC and 2×MIC. Growth and sterility controls were also included in each plate.
Synergy, indifference and antagonism were calculated based upon the use of the fractional inhibitory concentration (FIC) indices as described by Pillai, Moellering & Eliopoulos (2005) whereby:
Synergism=FIC index of ≦0.5 Indifference=FIC index >1 but ≦4 Additivity >0.5 to 1 Antagonism=FIC index of >4
Checkerboard studies were carried out as described in General Procedures using twenty different A. baumannii isolates with 5 per sub-group of: susceptible, amikacin-resistant, colistin-resistant and meropenem-resistant.

A. baumannii isolates [2] = test: Time kill study (Example 4); assay type: cell-based, Acinetobacter baumannii; details: for Time to kill 99.9%: alone; for MIC: Acinetobacter baumannii, read-out: MIC
Procedure: A total of 12 isolates were tested (three per sub-group either susceptible, meropenem-resistant, amikacin-resistant or colistin-resistant). Two combinations were tested per isolate. Time-kill kinetics were performed by testing compound (I) and an additional antibacterial agent (amikacin, colistin and meropenem) individually at 1× and 4× the corresponding MIC of each antibacterial agent. […] Samples were taken at 0, 2, 4, 8 and 24 hours in order to determine colony forming units (CFU/mL).
Time-kill studies were carried out as described in General Procedures using combinations of compound (I) with amikacin, meropenem and colistin, respectively.

A. baumannii SAN-94040 = test: Mouse model of A. baumannii pneumonia, Study 1: survival; assay type: in vivo, Acinetobacter baumannii
Procedure: The bacterial inoculum was prepared in order to obtain a suspension containing 10^8 CFU/mL of Acinetobacter baumannii in saline.
Experimentations were performed with six-week old female C3H/HeN mice (18-20 g, Breeding Centre JANVIER (Ile saint Genest Mayenne 53)) because of their particular susceptibility to Acinetobacter baumannii and the reproducibility of the results (inbreeding in the breed). Each mouse was individually marked and housed in cages containing five animals/cage under ventilated and controlled (temperature and humidity) atmosphere.
The mice were rendered transiently neutropenic by 2 intra-peritoneal (IP) injections of 150 μL of cyclophosphamide (Endoxan® 150 mg/kg) 4 (D-4) and 3 (D-3) days before the Acinetobacter baumannii inoculation (Day 0). This transient immunosuppression was sufficient to facilitate the development of the A. baumannii pneumonia while allowing the recovery of the neutrophil influx 2 (Day 2) days after inoculation in order to avoid or limit a systemic bacterial dissemination.
Mice were anesthetized by a mixture of oxygen and isoflurane. The bacterial inoculation was performed on Day 0 by intra-tracheal installation using an endotracheal catheter (50 μl of the suspension, thus 5.106 CFU). The positioning of the catheter in the trachea (instead of in the oesophagus) was checked by a “ring test”. The bacterial count in lungs was checked for all study groups by sacrificing one mouse immediately after inoculation.
Survival observations were assessed twice daily, up to 4 days post infection. The survival rates were compared with the Chi-square test or the Fisher exact test as appropriate. The survival curves were compared by the Kaplan-Meier method.
The aim of this experiment was to assess the […], with compound (I) via intra-peritoneal route at 200 mg/kg 3 times daily (every 8 hours) for 1 day alone and in combination with meropenem at 50 mg/kg 3 times daily (every 8 hours) for 1 day or with amikacin at 18 mg/kg 3 times daily (every 8 hours) for 1 day.

[3] = Study 1, 24 h after infection, doses as E210
[4] = Study 1, 72 h after infection, doses as E210

CCc1cc(O)c(Oc2ccc(C(N)=O)cc2F)cc1F [compound (I), 4-(4-ethyl-5-fluoro-2-hydroxyphenoxy)-3-fluorobenzamide]
effect in time-kill study when tested alone (A. baumannii SAN strain): bacteriostatic
MIC (A. baumannii isolates [1]; A. baumannii 441142, colistin-resistant): 2 µg/mL
MIC (A. baumannii isolates [1]; A. baumannii 441160, colistin-resistant): 4 µg/mL
MIC (A. baumannii isolates [1]; A. baumannii 463996, colistin-resistant): 2 µg/mL
MIC (A. baumannii isolates [1]; A. baumannii 466936, colistin-resistant): 16 µg/mL
MIC (A. baumannii isolates [1]; A. baumannii 618649, meropenem-resistant): 4 µg/mL
MIC (A. baumannii isolates [1]; A. baumannii 638115, amikacin-resistant): 8 µg/mL
MIC (A. baumannii isolates [1]; A. baumannii 655932, amikacin-resistant): 2 µg/mL
MIC (A. baumannii isolates [1]; A. baumannii 661954, amikacin-resistant): 8 µg/mL
MIC (A. baumannii isolates [1]; A. baumannii 667848, meropenem-resistant): 8 µg/mL
MIC (A. baumannii isolates [1]; A. baumannii 670348, susceptible): 4 µg/mL
MIC (A. baumannii isolates [1]; A. baumannii 671050, meropenem-resistant): 8 µg/mL
MIC (A. baumannii isolates [1]; A. baumannii 672190, susceptible): 4 µg/mL
MIC (A. baumannii isolates [1]; A. baumannii 674340, susceptible): 1 µg/mL
MIC (A. baumannii isolates [1]; Acinetobacter baumannii, A. baumannii 441142, colistin-resistant, read-out: MIC): 4 µg/mL
MIC (A. baumannii isolates [1]; Acinetobacter baumannii, A. baumannii 441160, colistin-resistant, read-out: MIC): 8 µg/mL
MIC (A. baumannii isolates [1]; Acinetobacter baumannii, A. baumannii 463996, colistin-resistant, read-out: MIC): 4 µg/mL
MIC (A. baumannii isolates [1]; Acinetobacter baumannii, A. baumannii 466936, colistin-resistant, read-out: MIC): 8 µg/mL
MIC (A. baumannii isolates [1]; Acinetobacter baumannii, A. baumannii 517303, colistin-resistant, read-out: MIC): 4 µg/mL
MIC (A. baumannii isolates [1]; Acinetobacter baumannii, A. baumannii 618649, meropenem-resistant, read-out: MIC): 2 µg/mL
MIC (A. baumannii isolates [1]; Acinetobacter baumannii, A. baumannii 625917, meropenem-resistant, read-out: MIC): 4 µg/mL
MIC (A. baumannii isolates [1]; Acinetobacter baumannii, A. baumannii 628760, susceptible, read-out: MIC): 2 µg/mL
MIC (A. baumannii isolates [1]; Acinetobacter baumannii, A. baumannii 637723, amikacin-resistant, read-out: MIC): 2 µg/mL
MIC (A. baumannii isolates [1]; Acinetobacter baumannii, A. baumannii 638115, amikacin-resistant, read-out: MIC): 4 µg/mL
MIC (A. baumannii isolates [1]; Acinetobacter baumannii, A. baumannii 650216, meropenem-resistant, read-out: MIC): 8 µg/mL
MIC (A. baumannii isolates [1]; Acinetobacter baumannii, A. baumannii 655932, amikacin-resistant, read-out: MIC): 4 µg/mL
MIC (A. baumannii isolates [1]; Acinetobacter baumannii, A. baumannii 661954, amikacin-resistant, read-out: MIC): 4 µg/mL
MIC (A. baumannii isolates [1]; Acinetobacter baumannii, A. baumannii 667848, meropenem-resistant, read-out: MIC): 4 µg/mL
MIC (A. baumannii isolates [1]; Acinetobacter baumannii, A. baumannii 670348, susceptible, read-out: MIC): 2 µg/mL
MIC (A. baumannii isolates [1]; Acinetobacter baumannii, A. baumannii 671050, meropenem-resistant, read-out: MIC): 4 µg/mL
MIC (A. baumannii isolates [1]; Acinetobacter baumannii, A. baumannii 672190, susceptible, read-out: MIC): 8 µg/mL
MIC (A. baumannii isolates [1]; Acinetobacter baumannii, A. baumannii 674340, susceptible, read-out: MIC): 2 µg/mL
Time to kill 99.9% (A. baumannii isolates [2]; AMK-R-1, 1xMIC): >24 h
Time to kill 99.9% (A. baumannii isolates [2]; AMK-R-1, 4xMIC): >24 h
Time to kill 99.9% (A. baumannii isolates [2]; AMK-R-2, 1xMIC): >24 h
Time to kill 99.9% (A. baumannii isolates [2]; AMK-R-2, 4xMIC): >24 h
Time to kill 99.9% (A. baumannii isolates [2]; AMK-R-3, 1xMIC): >24 h
Time to kill 99.9% (A. baumannii isolates [2]; AMK-R-3, 4xMIC): >24 h
MIC (A. baumannii isolates [2]; isolate AMK-R-1): 4 µg/mL
MIC (A. baumannii isolates [2]; isolate AMK-R-2): 4 µg/mL
MIC (A. baumannii isolates [2]; isolate AMK-R-3): 2 µg/mL
MIC (A. baumannii isolates [2]; isolate COL-R-1): 8 µg/mL
MIC (A. baumannii isolates [2]; isolate COL-R-2): 4 µg/mL
MIC (A. baumannii isolates [2]; isolate COL-R-3): 16 µg/mL
MIC (A. baumannii isolates [2]; isolate MPM-R-1): 8 µg/mL
MIC (A. baumannii isolates [2]; isolate MPM-R-2): 4 µg/mL
MIC (A. baumannii isolates [2]; isolate MPM-R-3): 4 µg/mL
MIC (A. baumannii isolates [2]; isolate Sus-1): 1 µg/mL
MIC (A. baumannii isolates [2]; isolate Sus-2): 2 µg/mL
MIC (A. baumannii isolates [2]; isolate Sus-3): 8 µg/mL
MIC (A. baumannii isolates [2]; isolate printed MPM-R-1 (second such line of Table 8, r14)): 4 µg/mL
Time to kill 99.9% (A. baumannii isolates [2]; COL-R-1, 1xMIC): >24 h
Time to kill 99.9% (A. baumannii isolates [2]; COL-R-1, 4xMIC): >24 h
Time to kill 99.9% (A. baumannii isolates [2]; COL-R-2, 1xMIC): >24 h
Time to kill 99.9% (A. baumannii isolates [2]; COL-R-2, 4xMIC): >24 h
Time to kill 99.9% (A. baumannii isolates [2]; COL-R-3, 1xMIC): >24 h
Time to kill 99.9% (A. baumannii isolates [2]; COL-R-3, 4xMIC): >24 h
Time to kill 99.9% (A. baumannii isolates [2]; MPM-R-1 (second line, Table 8 r14), 1xMIC): >24 h
Time to kill 99.9% (A. baumannii isolates [2]; MPM-R-1 (second line, Table 8 r14), 4xMIC): >24 h
Time to kill 99.9% (A. baumannii isolates [2]; MPM-R-1, 1xMIC): >24 h
Time to kill 99.9% (A. baumannii isolates [2]; MPM-R-1, 4xMIC): >24 h
Time to kill 99.9% (A. baumannii isolates [2]; MPM-R-2, 1xMIC): >24 h
Time to kill 99.9% (A. baumannii isolates [2]; MPM-R-2, 4xMIC): >24 h
Time to kill 99.9% (A. baumannii isolates [2]; MPM-R-3, 1xMIC): >24 h
Time to kill 99.9% (A. baumannii isolates [2]; MPM-R-3, 4xMIC): >24 h
Time to kill 99.9% (A. baumannii isolates [2]; Sus-1, 1xMIC): >24 h
Time to kill 99.9% (A. baumannii isolates [2]; Sus-1, 4xMIC): >24 h
Time to kill 99.9% (A. baumannii isolates [2]; Sus-2, 1xMIC): >24 h
Time to kill 99.9% (A. baumannii isolates [2]; Sus-2, 4xMIC): >24 h
Time to kill 99.9% (A. baumannii isolates [2]; Sus-3, 1xMIC): >24 h
Time to kill 99.9% (A. baumannii isolates [2]; Sus-3, 4xMIC): >24 h
effect in time-kill studies when tested alone (A. baumannii isolates [2]; alone at 1× or 4×MIC): bacteriostatic
survivors (%) (A. baumannii SAN-94040; Study 1, 0 h after infection, doses as E210): 100%
No. of survivors (A. baumannii SAN-94040; [3]): 10
survivors (%) (A. baumannii SAN-94040; [3]): 71%
No. of survivors (A. baumannii SAN-94040; Study 1, 48 h after infection, doses as E210): 0
No. of survivors (A. baumannii SAN-94040; [4]): 0
survivors (%) (A. baumannii SAN-94040; [4]): 0%
No. of survivors (A. baumannii SAN-94040; Study 1, 96 h after infection, doses as E210): 0
No. of survivors (A. baumannii SAN-94040; Study 1, C3H/HeN mice, 0 h after SAN-94040 infection, compound (I) 200 mg/kg, amikacin 18 mg/kg, meropenem 50 mg/kg q 8 h I.P.): 14
time post-infection within which all animals died (A. baumannii SAN-94040; Study 1, SAN-94040): ≤ 48 h
